The target of the assay is human PDE4B1 (Homo sapiens (Human), UniProt Q07343). The assay is described as follows: cAMP HTRF assay to determine the activity of hPDE4B1. The assay is classed as biochemical. Conditions: for inhibition at 3 µM: inhibition of PDE4B at a test substrate concentration of 3 μM; for IC50: human recombinant PDE4B1 expressed in Sf9 cells, cAMP 40 nM, N=1-2, n=2, read-out: PDE4B IC50-value. On the procedure:
A: Determination of the PDE4B IC50 Values with a cAMP HRTF® Assay to Determine the Activity of hPDE4B1
The inhibiting effect of the compounds on the enzyme activity of human PDE4B1 is measured by the quantification of 5′-AMP, which is formed from 3′,5′-adenosine monophosphate (cAMP). Human recombinant enzyme, expressed in Sf9 cells, and the HTRF (homogeneous time-resolved fluorescence) detection method are used in the assay.
The test compound or water (control) is mixed with the human recombinant PDE4B1 enzyme (4.8 U) in a buffer consisting of 44.4 mM tris-HCl, 5.28 mM MgCl2, 2.64 mM DTT and 0.044% Tween 20 (pH 7.8). After adding the cAMP enzyme substrate (final concentration 40 nM) the mixture is incubated for 30 minutes at room temperature. Then a fluorescence acceptor (Dye2 marked with cAMP), a fluorescence donor (anti-cAMP antibody marked with a europium cryptate) and the non-specific phosphodiesterase inhibitor IBMX (3-isobutyl-1-methylxanthine; final concentration 1 mM) are added. After 60 minutes the fluorescence transfer, which correlates with the amount of remaining cAMP, is measured with a microplate reader (Rubystar, BMG) at λex=337 nm, λem=620 nm and λem=665 nm. The enzyme activity is calculated from the quotient formed from the measured signal at 665 nm and that at 620 nm. The result is expressed as the percentage inhibition of enzyme activity of the control (without PDE4 inhibitor) (literature: N. Saldou et al., Comparison of recombinant human PDE4 isoforms: interaction with substrate and inhibitors, Cell. Signal. Vol. 10, No. 6, 427-440, 1998). The enzyme is omitted for measurement of the basal control.

Here are results for 30 molecules from patent US9688683B2, “Substituted condensed pyrimidine compounds” (GRÜNENTHAL GMBH, priority 2013, dated 2017).

One may read the inhibition as how much of the control response was suppressed. Read a low inhibition as a response near the control. A word on the IC50: it is the concentration needed to halve the response being measured.

human PDE4B1, sequence (Q07343 whole entry): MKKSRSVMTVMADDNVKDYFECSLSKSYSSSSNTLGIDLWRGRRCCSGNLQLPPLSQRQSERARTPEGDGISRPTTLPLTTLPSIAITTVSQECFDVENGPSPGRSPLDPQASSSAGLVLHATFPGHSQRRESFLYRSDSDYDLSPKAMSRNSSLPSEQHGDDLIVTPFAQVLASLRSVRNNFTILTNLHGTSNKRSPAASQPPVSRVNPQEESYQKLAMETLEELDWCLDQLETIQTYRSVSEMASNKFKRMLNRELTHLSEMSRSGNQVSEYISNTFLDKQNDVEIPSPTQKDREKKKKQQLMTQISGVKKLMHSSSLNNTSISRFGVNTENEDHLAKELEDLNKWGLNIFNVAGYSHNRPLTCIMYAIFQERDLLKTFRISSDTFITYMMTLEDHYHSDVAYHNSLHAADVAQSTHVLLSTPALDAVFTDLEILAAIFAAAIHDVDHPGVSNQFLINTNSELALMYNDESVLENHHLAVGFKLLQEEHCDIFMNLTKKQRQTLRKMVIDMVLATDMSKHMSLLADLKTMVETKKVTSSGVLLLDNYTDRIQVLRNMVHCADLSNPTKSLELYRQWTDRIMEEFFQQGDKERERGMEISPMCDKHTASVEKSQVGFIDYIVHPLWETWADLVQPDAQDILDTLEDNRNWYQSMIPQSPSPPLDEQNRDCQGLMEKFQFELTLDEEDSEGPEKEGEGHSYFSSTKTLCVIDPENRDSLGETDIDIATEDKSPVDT

`CCc1nc(-c2ccc(OC)cc2)nc2c1ccn2-c1cccc(OCC(=O)N(C)C)c1` [Compound 94, 2-(3-(4-Ethyl-2-(4-methoxyphenyl)-7H-pyrrolo[2,3-d]pyrimidin-7-yl)phenoxy)-N,N-dimethylacetamide] gave an inhibition at 3 µM of 54%.

Take `CCc1nc(-c2cccnc2)nc2c1ccn2-c1cccc(OCC(=O)N(C)C)c1` [Compound 83, 2-(3-(4-ethyl-2-(pyridin-3-yl)-7H-pyrrolo[2,3-d]pyrimidin-7-yl)phenoxy)-N,N-dimethylacetamide]: the concentration for half-maximal inhibition (IC50) was less than 1000 nM. On to `CCc1nc(-c2ccc(F)c(OC)c2)nc2c1CCN2c1ccc(CC(=O)O)cc1` [Compound 86, 2-(4-(4-Ethyl-2-(4-fluoro-3-methoxyphenyl)-5H-pyrrolo[2,3-d]pyrimidin-7(6H)-yl)phenyl)acetic acid], for which the inhibition at 3 µM worked out at 47%. As to `COc1ccc(-c2nc(SC)c3ccn(-c4ccc(CC(=O)O)cc4)c3n2)cc1F` [Compound 69, 2-(4-(2-(3-fluoro-4-methoxyphenyl)-4-(methylthio)-7H-pyrrolo[2,3-d]pyrimidin-7-yl)phenyl)acetic acid], the IC50 is 1000 to 10000 nM. On the same count and under the same terms, as for `COc1ccc(-c2nc(C3CC3)c3ccn(-c4cccc(OCC(=O)N(C)C)c4)c3n2)cc1F` [Compound 76, 2-(3-(4-cyclopropyl-2-(3-fluoro-4-methoxyphenyl)-7H-pyrrolo[2,3-d]pyrimidin-7-yl)phenoxy)-N,N-dimethylacetamide], the figure is 1000 to 10000 nM; as for `CCc1nc(-c2ccc(Cl)s2)nc2c1CCN2c1ccc(C(=O)O)cc1` [Compound 46, 4-(2-(5-chlorothiophen-2-yl)-4-ethyl-5H-pyrrolo[2,3-d]pyrimidin-7(6H)-yl)benzoic acid], less than 1000 nM; as for `CCc1nc(-c2ccc(OC)c(F)c2)nc2c1CCN2c1ccc(CC(=O)O)cc1` [Compound 8, 2-(4-(4-Ethyl-2-(3-fluoro-4-methoxyphenyl)-5H-pyrrolo[2,3-d]pyrimidin-7(6H)-yl)phenyl)-acetic acid], less than 1000 nM.

As to `CCc1nc(-c2ccc3ncsc3c2)nc2c1ccn2-c1cccc(OCC(=O)N(C)C)c1` [Compound 88, 2-(3-(2-(Benzo[d]thiazol-6-yl)-4-ethyl-7H-pyrrolo[2,3-d]pyrimidin-7-yl)phenoxy)-N,N-dimethylacetamide], 3 µM produced 51% inhibition. Take `CCc1nc(-c2ccc(OC)c(F)c2)nc2c1CCN2c1ccc(C(=O)O)cc1` [Compound 6, 4-(4-ethyl-2-(3-fluoro-4-methoxyphenyl)-5H-pyrrolo[2,3-d]pyrimidin-7(6H)-yl)benzoic acid]: the IC50 fell in the range of 1000 to 10000 nM. Regarding `CCc1nc(-c2ccncc2)nc2c1ccn2-c1cccc(OCC(=O)N(C)C)c1` [Compound 82, 2-(3-(4-ethyl-2-(pyridin-4-yl)-7H-pyrrolo[2,3-d]pyrimidin-7-yl)phenoxy)-N,N-dimethylacetamide], the IC50 was less than 1000 nM. For the molecule `CCc1nc(-c2cccc(S(C)(=O)=O)c2)nc2c1ccn2-c1cccc(OCC(=O)N(C)C)c1` [Compound 81, 2-(3-(4-ethyl-2-(3-(methylsulfonyl)phenyl)-7H-pyrrolo[2,3-d]pyrimidin-7-yl)phenoxy)-N,N-dimethylacetamide], the IC50 was less than 1000 nM. Consider `COc1ccc(-c2nc(C)c3c(n2)N(c2ccc(CC(=O)O)cc2)CC3C)cc1Cl` (stereo not drawn) [Compound 24, 2,2,2-Trifluoroacetic acid compound with 2-(4-(2-(3-chloro-4-methoxyphenyl)-4,5-dimethyl-5H-pyrrolo[2,3-d]pyrimidin-7(6H)-yl)phenyl)acetic acid (1:1)], for which the IC50 was less than 1000 nM.

With `COc1ccc(-c2nc(C)c3ccn(-c4ccc(C(=O)O)cc4)c3n2)cc1F` [Compound 1, 4-(2-(3-Fluoro-4-methoxyphenyl)-4-methyl-7H-pyrrolo[2,3-d]pyrimidin-7-yl)benzoic acid], the IC50 was less than 1000 nM. On to `CCOc1ccc(-c2nc(CC)c3ccn(-c4cccc(OCC(=O)N(C)C)c4)c3n2)cc1` [Compound 95, 2-(3-(2-(4-Ethoxyphenyl)-4-ethyl-7H-pyrrolo[2,3-d]pyrimidin-7-yl)phenoxy)-N,N-dimethylacetamide], for which at 3 µM the inhibition was 41%. With `Cc1nc(-c2ccc(Cl)s2)nc2c1CCN2c1ccc(CC(=O)O)cc1` [Compound 39, 2,2,2-Trifluoroacetic acid compound with 2-(4-(2-(5-chlorothiophen-2-yl)-4-methyl-5H-pyrrolo[2,3-d]pyrimidin-7(6H)-yl)phenyl)acetic acid (1:1)], the IC50 is less than 1000 nM. On the same count and under the same terms, for `COc1ccc(-c2nc(C)c3ccn(-c4ccc(CC(=O)O)cc4)c3n2)cc1Cl` [Compound 16, 2-(4-(2-(3-Chloro-4-methoxyphenyl)-4-methyl-7H-pyrrolo[2,3-d]pyrimidin-7-yl)phenyl)acetic acid] the value was less than 1000 nM.

As for `CCc1nc(-c2ccc(OC)c(F)c2)nc2c1CCN2c1cccc(OCC(=O)N(C)CC2CC2)c1` [Compound 51, N-(cyclopropylmethyl)-2-(3-(4-ethyl-2-(3-fluoro-4-methoxyphenyl)-5H-pyrrolo[2,3-d]pyrimidin-7(6H)-yl)phenoxy)-N-methylacetamide], the IC50 fell in the range of 1000 to 10000 nM. With `COc1ccc(-c2nc(C)c3c(n2)N(c2cccc(OCC(=O)N(C)C)c2)CC32CC2)cc1F` [Compound 79, 2-(3-(2′-(3-fluoro-4-methoxyphenyl)-4′-methylspiro-[cyclopropane-1,5′-pyrrolo[2,3-d]pyrimidin]-7′(6′H)-yl)phenoxy)-N,N-dimethylacetamide], the IC50 is 1000 to 10000 nM. The same measure, in the same setting: as for `COc1ccc(-c2nc(S(C)(=O)=O)c3ccn(-c4cccc(OCC(=O)N(C)C)c4)c3n2)cc1F` [Compound 50, 2-(3-(2-(3-fluoro-4-methoxyphenyl)-4-(methylsulfonyl)-7H-pyrrolo[2,3-d]pyrimidin-7-yl)phenoxy)-N,N-dimethylacetamide], the figure is 1000 to 10000 nM; as for `CCc1nc(-c2ccc(Cl)s2)nc2c1CCN2c1cccc(OCC(=O)N(C)C)c1` [Compound 40, 2-(3-(2-(5-chlorothiophen-2-yl)-4-ethyl-5H-pyrrolo[2,3-d]pyrimidin-7(6H)-yl)phenoxy)-N,N-dimethylacetamide], less than 1000 nM.

As for `COc1ccc(-c2ncc3c(n2)N(c2cccc(OCC(=O)N(C)C)c2)CC32CC2)cc1F` [Compound 78, 2-(3-(2′-(3-fluoro-4-methoxyphenyl)spiro[cyclopropane-1,5′-pyrrolo[2,3-d]pyrimidin]-7′(6′H)-yl)phenoxy)-N,N-dimethylacetamide], the IC50 was 1000 to 10000 nM. On the same count and under the same terms, for `Cc1nc(-c2ccc(Cl)s2)nc2c1ccn2-c1ccc(C(=O)O)cc1` [Compound 38, 4-(2-(5-Chlorothiophen-2-yl)-4-methyl-7H-pyrrolo[2,3-d]pyrimidin-7-yl)benzoic acid] the value was less than 1000 nM. Regarding `CCc1nc(-c2ccc3occc3c2)nc2c1CCN2c1ccc(CC(=O)O)cc1` [Compound 89, 2-(4-(2-(Benzofuran-5-yl)-4-ethyl-5H-pyrrolo[2,3-d]pyrimidin-7(6H)-yl)phenyl)acetic acid], the inhibition at 3 µM turned out to be 63%. Turning to `COc1ccc(-c2nc(C)c3c(n2)N(c2ccc(CC(=O)O)cc2)CC3C)cc1F` (stereo not drawn) [Compound 12, 2,2,2-Trifluoroacetic acid compound with 2-(4-(2-(3-fluoro-4-methoxyphenyl)-4,5-dimethyl-5H-pyrrolo[2,3-d]pyrimidin-7(6H)-yl)phenyl)acetic acid (1:1)], the IC50 is less than 1000 nM.

As to `COc1ccc(-c2nc(OC)c3ccn(-c4ccc(C(=O)O)cc4)c3n2)cc1Cl` [Compound 45, 4-(2-(3-chloro-4-methoxyphenyl)-4-methoxy-7H-pyrrolo[2,3-d]pyrimidin-7-yl)benzoic acid], the IC50 is 1000 to 10000 nM. `CCc1nc(-c2ccc(OC)c(Cl)c2)nc2c1ccn2-c1cccc(OCC(=O)N(C)C)c1` [Compound 92, 2-(3-(2-(3-Chloro-4-methoxyphenyl)-4-ethyl-7H-pyrrolo[2,3-d]pyrimidin-7-yl)phenoxy)-N,N-dimethylacetamide] yielded an inhibition at 3 µM of 67%.

Take `CCc1nc(-c2ccc(OC)c(F)c2)nc2c1CCN2c1cccc(OCC(=O)NC2COC2)c1` [Compound 47, 2-(3-(4-ethyl-2-(3-fluoro-4-methoxyphenyl)-5H-pyrrolo[2,3-d]pyrimidin-7(6H)-yl)phenoxy)-N-(oxetan-3-yl)acetamide]: the IC50 lay in the range of 1000 to 10000 nM. Turning to `CCc1nc(-c2ccc(OC)c(F)c2)nc2c1ccn2-c1ccc(C(=O)O)cc1` [Compound 2, 4-(4-ethyl-2-(3-fluoro-4-methoxyphenyl)-7H-pyrrolo[2,3-d]pyrimidin-7-yl)benzoic acid], the IC50 was less than 1000 nM. Still for that read-out and setting: for `COc1ccc(-c2nc(C)c3c(n2)N(c2ccc(CC(=O)O)cc2)CC3)cc1F` [Compound 7, 2-(4-(2-(3-Fluoro-4-methoxyphenyl)-4-methyl-5H-pyrrolo[2,3-d]pyrimidin-7(6H)-yl)phenyl)acetic acid] the value was less than 1000 nM. In turn, `CCc1nc(-c2ccc(OC(F)F)cc2)nc2c1CCN2c1ccc(CC(=O)O)cc1` [Compound 90, 2-(4-(2-(4-(Difluoromethoxy)phenyl)-4-ethyl-5H-pyrrolo[2,3-d]pyrimidin-7(6H)-yl)phenyl)acetic acid] came in with an inhibition at 3 µM of 58%.
